Here are results for one compound from US20100331297A1, “MODULATION OF PROTEIN TRAFFICKING” (FOLDRX PHARMACEUTICALS, INC., priority 2007, published 2010).

One assay deals with ΔF508 CFTR (Homo sapiens, UniProt P13569, DEL508-508). The assay can be described thus: Ussing chamber assay, short-circuit current in FRT cells stably expressing ΔF508 CFTR. On the set-up: expressed in transfected cells; host or cells: Fischer rat thyroid (FRT) cells. Conditions: FRT ΔF508 CFTR monolayers treated 24 hours; forskolin, isobutylmethylxanthine, genistein. The assay is classed as cell-based. The procedure:
Ussing Chamber Assay: Fischer rat thyroid (FRT) cells stably expressing ΔF508 CFTR (cystic fibrosis transmembrane conductance regulator) were cultured as previously described in Am J. Physiol. (1994) 266 L405-413. Monolayers of cells were grown on Snapwell inserts (Corning Inc.) at the air/liquid interface. The monolayers were treated with compound for 24 hours. The inserts are mounted in Ussing chambers (Harvard Apparatus) and short-circuit currents are measured using a voltage clamp apparatus (WPI, Inc.). A mucosal to serosal gradient in chloride concentration is imposed and the basolateral membrane is permeabilized using amphotericin. Short circuit currents are measured upon addition of the agonists forskolin, isobutylmethylxanthine, and genistein to maximally activate CFTR.

The test system of a further assay is ypt1^ts cells. The assay can be described thus: Rescue of growth of ypt1^ts mutant yeast (OD600). It counts as cell-based. Conditions: Saccharomyces cerevisiae, read-out: Ypt1-ts MRC (Minimum Rescue Concentration), ypt1^ts cells, 35° C. and 37° C., OD600; multiple results separated by a comma. In short, it runs like this: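 Log-phase ypt1^ts cells (N121I/A161V) in SC 2% glucose were diluted to OD600 0.003 and treated with compound at 50 μM-0.05 μM final in 1% DMSO. Cultures were incubated at 35° C. (read at 24 and 40 h) or 37° C. (read at 40 h), with rescue measured as OD600 growth and reported as minimum rescue concentration.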

ΔF508 CFTR, sequence (P13569 with tags, fused parts or gaps DEL508-508): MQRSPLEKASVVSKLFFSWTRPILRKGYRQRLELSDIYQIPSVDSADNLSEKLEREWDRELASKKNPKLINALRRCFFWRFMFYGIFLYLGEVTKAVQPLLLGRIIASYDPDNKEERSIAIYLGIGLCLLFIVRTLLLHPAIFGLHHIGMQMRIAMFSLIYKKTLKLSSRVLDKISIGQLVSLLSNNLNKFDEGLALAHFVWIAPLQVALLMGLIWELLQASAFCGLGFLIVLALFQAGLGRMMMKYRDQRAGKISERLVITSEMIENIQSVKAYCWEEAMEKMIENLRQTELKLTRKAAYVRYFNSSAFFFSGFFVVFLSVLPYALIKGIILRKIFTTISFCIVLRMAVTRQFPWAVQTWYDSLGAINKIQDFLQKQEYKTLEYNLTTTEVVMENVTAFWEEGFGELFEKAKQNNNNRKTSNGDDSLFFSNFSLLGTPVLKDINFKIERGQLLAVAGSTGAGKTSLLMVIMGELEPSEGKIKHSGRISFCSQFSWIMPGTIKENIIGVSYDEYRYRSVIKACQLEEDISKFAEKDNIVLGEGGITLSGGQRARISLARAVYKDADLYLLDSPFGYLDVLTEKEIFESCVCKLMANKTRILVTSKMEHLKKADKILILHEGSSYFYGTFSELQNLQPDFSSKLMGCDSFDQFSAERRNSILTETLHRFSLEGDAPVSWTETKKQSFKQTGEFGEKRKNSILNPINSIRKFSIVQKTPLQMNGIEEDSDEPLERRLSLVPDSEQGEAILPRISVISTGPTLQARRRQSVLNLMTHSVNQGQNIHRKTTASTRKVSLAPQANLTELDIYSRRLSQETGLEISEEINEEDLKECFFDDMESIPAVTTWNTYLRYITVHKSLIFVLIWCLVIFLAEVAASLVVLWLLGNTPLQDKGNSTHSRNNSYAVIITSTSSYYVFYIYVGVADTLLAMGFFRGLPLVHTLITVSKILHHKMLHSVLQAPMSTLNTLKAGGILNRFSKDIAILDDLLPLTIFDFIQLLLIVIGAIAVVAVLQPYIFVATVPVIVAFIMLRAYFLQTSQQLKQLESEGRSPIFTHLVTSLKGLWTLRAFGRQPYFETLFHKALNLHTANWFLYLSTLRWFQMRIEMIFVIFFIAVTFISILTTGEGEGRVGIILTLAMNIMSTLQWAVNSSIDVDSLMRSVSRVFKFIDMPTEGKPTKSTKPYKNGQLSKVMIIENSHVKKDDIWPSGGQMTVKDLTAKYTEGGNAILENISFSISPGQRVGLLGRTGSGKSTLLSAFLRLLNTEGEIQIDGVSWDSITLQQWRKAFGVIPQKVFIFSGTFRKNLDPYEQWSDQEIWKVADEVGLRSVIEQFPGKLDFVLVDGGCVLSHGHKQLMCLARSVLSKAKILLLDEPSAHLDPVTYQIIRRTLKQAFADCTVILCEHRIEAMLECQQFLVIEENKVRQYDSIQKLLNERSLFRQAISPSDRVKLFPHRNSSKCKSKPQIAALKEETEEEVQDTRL

Turning to `CC(C)(C)n1nc(-c2ccc(Cl)cc2)c2c(N)ncnc21` [compound 25], the “short circuit current after the addition of all three agonists” value at ΔF508 CFTR is listed as roughly 65 uA/cm^2. The minimal effective concentration in the assay on ypt1^ts cells is less than 10 µM.
